Test results as given in patent US20220274980A1, “PHARMACOLOGICAL INHIBITORS OF THE ENL YEATS DOMAIN” (priority 2019, published 2022).
Where two headings read alike, the source gives them in different places.

Experiments:
[1] = target: T1, ENL YEATS domain (association with H3K27cr) (Homo sapiens, UniProt Q03111); assay: biochemical
T1 sequence (Q03111 1-148): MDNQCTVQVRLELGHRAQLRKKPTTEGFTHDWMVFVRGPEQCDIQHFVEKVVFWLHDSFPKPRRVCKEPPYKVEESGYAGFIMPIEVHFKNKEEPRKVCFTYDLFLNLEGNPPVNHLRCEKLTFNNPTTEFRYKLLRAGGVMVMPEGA
Description: (§1) Protein Production. Double stranded DNA fragments encoding the protein sequence of ENL YEATS(1-148) were synthesized (IDT DNA) for assembly-based cloning into a modified expression vector backbone derived from pET21a (Novagen). The protein was fused to a StrepII-SUMO and 6×His tag on the amino and carboxy terminus, respectively. Transformed BL21(DE3) cells (New England Biolabs) were grown at 37° C. in 2×YT growth medium to an OD600 of 0.6. Protein expression was induced at 25° C. with the addition of isopropyl-β-D-thiogalactopyranoside (IPTG) to a final concentration of 0.4 mM. The culture was harvested by centrifugation following a 20-hour incubation and subsequently purified by immobilized metal affinity chromatography. Cells were resuspended 50 mM Tris-HCl pH 8.0, 300 mM NaCl, 10% glycerol, 10 mM imidazole, 1 mM DTT containing Complete EDTA-free protease inhibitor (Roche) and lysed by two passes through a MicroFluidizer at 10,000 psi. The lysate was clarified by centrifugation at 16,000 rpm for 30 minutes at 4° C. The supernatant was passed over NiNTA agarose (QIAGEN) and the protein was eluted in 50 mM Tris-HCl pH 8.0, 300 mM NaCl, 10% glycerol, 250 mM imidazole, 1 mM DTT. Fractions containing the ENL YEATS(1-148) fusion protein were buffer exchanged into 100 mM Tris-HCl pH 8.0, 150 mM NaCl, 1 mM EDTA, 1 mM DTT using PD10 desalting columns (GE Life Sciences). Ulp1 protease was added to cleave the StrepII-SUMO fusion and the reaction mixture was incubated overnight at 4° C. The cleavage reaction mixture was loaded onto a StrepTrap column (GE Life Sciences) and ENL YEATS(1-148) was recovered in the flow through. BRD4 BD1 was purchased from Cayman (Cat. No. 11720).
(§2) Homogenous time-resolved FRET (HTRF) histone-binding assays. Both HTRF assays were performed by combining recombinant protein and synthetic histone peptide in assay buffer (25 mM HEPES pH 7, 20 mM NaCl, 0.2% Pluronic F-127, and 0.05% BSA) with 1 nM LanthaScreen Eu-anti-His Tag antibody (ThermoFisher, Cat. No, PV5597) and 8.9 nM SureLight allophycocyanin-streptavidin (Perkin Elmer, APC-SA, Cat. No. CR130-100). ENL YEATS was used at 5 nM and BRD4 BD1 was used at 10 nM. ENL assays were performed with H3(13-32)K27cr (13.3 and 100 nM, respectively), custom synthesized at ABclonal (N-terminal biotin, C-terminal amide); BRD4 BD1 assay was performed with 13.3 nM tetra-acetylated H4 (BioVision, Cat. No. 7144-01). Once all reagents were combined (with or without peptide), 10 μL was dispensed per well into black 384-well low-volume plates (Corning, Cat. No. 3821) and drug was added by pin tool transfer (Biomek FX). Assays were incubated for 2 or more hours before measurement of HTRF signal on a PHERAstar plate reader (BMG Labtech; simultaneous dual emission; excitation=337 nm, emission 1=665 nm, emission 2=620 nm). HTRF signal (ratio of emission 1 to emission 2) from vehicle-treated wells (maximum signal) and no-peptide-control wells (minimum signal) were used to calculate percent inhibition for drug-treated wells.

BRD4 bromodomain 1 (BD1) = target: T2, BRD4 bromodomain 1 (BD1) (Homo sapiens, UniProt O60885); assay: BRD4 (BD1)-H4 tetra-acetylated HTRF histone-binding assay
T2 construct: Selectivity against BRD4 bromodomain 1 (BD1), measured by HTRF; His; purchased Cayman 11720
Description: as §1, §2

[2] = ENL (YEATS)-H3K27cr HTRF (IC50, μM), Table 1
[3] = ENL (YEATS)-H3K27cr HTRF (IC50, μM), Table 2
[4] = read-out: ENL (YEATS)-H3K27cr HTRF (IC50), Table 1

Row | SMILES | IC50 [1, 2] | IC50 [1, 3] | IC50 (BRD4 bromodomain 1 (BD1); Table 1) | IC50 (BRD4 bromodomain 1 (BD1); Table 2) | IC50 [1, 4]
1 | O=C(NC1CCC(O)CC1)c1ccc2nc(-c3ccccc3)cn2c1 (stereo not shown) [Compound 31] | 7 µM | 7 µM | – | – | –
2 | CC(C)NC(=O)c1ccc2nc(-c3cccc(NS(=O)(=O)NCCCCCC#N)c3)cn2c1 [Compound 59] | 0.55 µM | 0.55 µM | > 50 µM | > 50 µM | –
3 | O=C(NC1C2CC1C2)c1ccc2nc(-c3ccccc3)cn2c1 (stereo not shown) [Compound 125] | – | – | – | – | > 50 µM
4 | CC(C)NC(=O)c1ccc2nc(-c3cccc(NS(=O)(=O)NCCC(=O)O)c3)cn2c1 [Compound 66] | 0.63 µM | 0.63 µM | > 50 µM | > 50 µM | –
5 | CC(C)NC(=O)c1ccc2nc(-c3ccc([N+](=O)[O-])cc3)cn2c1 [Compound 37] | 2.8 µM | 2.8 µM | > 50 µM | > 50 µM | –
6 | CC(C)NC(=O)c1ccc2nc(-c3cccc(NS(=O)(=O)NCCCC(=O)O)c3)cn2c1 [Compound 60] | 0.69 µM | 0.69 µM | > 50 µM | > 50 µM | –
7 | CC(C)NC(=O)c1ccc2nc(-c3cccc(N=S(=O)(F)N4CCC[C@@H]4C(=O)O)c3)cn2c1 (stereo partly shown) [Compound 68] | 0.61 µM | 0.61 µM | > 50 µM | > 50 µM | –
8 | CC(C)NC(=O)c1ccc2nc(-c3cccc(NS(=O)(=O)NCCCCCCC(=O)O)c3)cn2c1 [Compound 61] | 0.36 µM | 0.36 µM | > 50 µM | > 50 µM | –
9 | CC(C)NC(=O)c1ccc2nc(Cn3ccnc3)cn2c1 [Compound 90] | 26.6 µM | 26.6 µM | – | – | –
10 | CC(C)NC(=O)c1ccc2nc(-c3cccc(NS(=O)(=O)NCCOCCO)c3)cn2c1 [Compound 42] | 0.55 µM | 0.55 µM | > 50 µM | > 50 µM | –
11 | CC(C)NC(=O)c1ccc2nc(-c3cccc(NS(=O)(=O)NCCc4ccc(N)cc4)c3)cn2c1 [Compound 58] | 0.32 µM | 0.32 µM | > 50 µM | > 50 µM | –
12 | CC(C)NC(=O)c1ccc2nc(-c3cccc(NS(=O)(=O)NCCc4ccc(S(N)(=O)=O)cc4)c3)cn2c1 [Compound 48] | 0.51 µM | 0.51 µM | > 50 µM | > 50 µM | –
13 | CC(C)NC(=O)c1ccc2nc(-c3ccccn3)cn2c1 [Compound 91] | 14.8 µM | 14.8 µM | – | – | –
14 | CC(C)NC(=O)c1ccc2nc(-c3ccccc3)cn2c1 [Compound 1] | 4 µM | 4 µM | > 50 µM | > 50 µM | –
15 | CC(C)NC(=O)c1ccc2nc(-c3cccc(NS(=O)(=O)NCc4ccc(O)cc4)c3)cn2c1 [Compound 47] | 0.37 µM | 0.37 µM | > 50 µM | > 50 µM | –
16 | CC(C)NC(=O)c1ccc2nc(-c3cccc(NS(=O)(=O)NCc4ccc(F)cc4)c3)cn2c1 [Compound 51] | 1.02 µM | 1.02 µM | > 50 µM | > 50 µM | –
17 | CC(C)NC(=O)c1ccc2nc(-c3cccc(N=S(=O)(F)F)c3)cn2c1 [Compound 40, (3-(6-(isopropylcarbamoyl)imidazo[1,2-a]pyridin-2-yl)phenyl)sulfurimidoyl difluoride] | – | – | > 50 µM | > 50 µM | 3.6 µM
18 | CC(C)NC(=O)c1ccc2nc(-c3ccccc3C#N)cn2c1 [Compound 89] | 16.7 µM | 16.7 µM | – | – | –
19 | Cc1cc(-c2cn3cc(C(=O)NC(C)C)ccc3n2)ccn1 [Compound 88] | 7.05 µM | 7.05 µM | – | – | –
20 | CC(C)NC(=O)c1ccc2nc(-c3cccc(NS(=O)(=O)NCCCO)c3)cn2c1 [Compound 44] | 0.56 µM | 0.56 µM | > 50 µM | > 50 µM | –

Row | SMILES | IC50 [1, 2] | IC50 [1, 3] | IC50 (BRD4 bromodomain 1 (BD1); Table 1) | IC50 (BRD4 bromodomain 1 (BD1); Table 2) | IC50 [1, 4]
21 | CC(C)NC(=O)c1ccc2nc(-c3cccc(NS(=O)(=O)NCCCN4CCOCC4)c3)cn2c1 [Compound 45] | 0.55 µM | 0.55 µM | > 50 µM | > 50 µM | –
22 | CC(C)NC(=O)c1ccc2nc(-c3ccc(CN)cc3)cn2c1 [Compound 92] | 3.72 µM | 3.72 µM | – | – | –
23 | CC(C)NC(=O)c1ccc2nc(-c3cccc(NS(=O)(=O)NC[C@H]4CC[C@H](C(=O)O)CC4)c3)cn2c1 [Compound 65] | 0.32 µM | 0.32 µM | > 50 µM | > 50 µM | –
24 | CC(C)NC(=O)c1ccc2nc(-c3cccc(NS(=O)(=O)NCCCCO)c3)cn2c1 [Compound 62] | 0.3 µM | 0.3 µM | > 50 µM | > 50 µM | –
25 | COC(=O)[C@H]1CCCN1S(=O)(F)=Nc1cccc(-c2cn3cc(C(=O)NC(C)C)ccc3n2)c1 (stereo partly shown) [Compound 55] | 0.95 µM | 0.95 µM | > 50 µM | > 50 µM | –
26 | CCc1ccc(-c2cn3cc(C(=O)NC4CC4)ccc3n2)cc1 [Compound 28] | 5 µM | 5 µM | – | – | –
27 | CC(C)NC(=O)c1ccc2nc(-c3cccc([N+](=O)[O-])c3)cn2c1 [Compound 36] | 3.7 µM | 3.7 µM | > 50 µM | > 50 µM | –
28 | CC(C)NC(=O)c1ccc2nc(-c3cccc(NS(=O)(=O)NCCCCCCCC(=O)O)c3)cn2c1 [Compound 63] | 0.46 µM | 0.46 µM | > 50 µM | > 50 µM | –
29 | CNS(=O)(=O)Nc1cccc(-c2cn3cc(C(=O)NC(C)C)ccc3n2)c1 [Compound 52] | 0.39 µM | 0.39 µM | > 50 µM | > 50 µM | –
30 | CC(C)NC(=O)c1ccc2nc(-c3cccc(N)c3)cn2c1 [Compound 38] | 10.7 µM | 10.7 µM | > 50 µM | > 50 µM | –
31 | CC(C)NC(=O)c1ccc2nc(-c3ccc(N)cc3)cn2c1 [Compound 39] | 7.8 µM | 7.8 µM | > 50 µM | > 50 µM | –
32 | CC(C)NC(=O)c1ccc2nc(-c3cccc(NS(=O)(=O)NCCCN4CCCC4=O)c3)cn2c1 [Compound 53] | 0.88 µM | 0.88 µM | > 50 µM | > 50 µM | –
33 | COC(=O)[C@@H](Cc1c[nH]c2ccccc12)NS(=O)(=O)Nc1cccc(-c2cn3cc(C(=O)NC(C)C)ccc3n2)c1 [Compound 54] | 0.87 µM | 0.87 µM | > 50 µM | > 50 µM | –
34 | O=C(NCC1CC1)c1ccc2nc(-c3ccccc3)cn2c1 [Compound 29] | 6 µM | 6 µM | – | – | –
35 | CC(C)NC(=O)c1ccc2nc(-c3cccc(NS(=O)(=O)NCCc4cccs4)c3)cn2c1 [Compound 49] | 1.36 µM | 1.36 µM | > 50 µM | > 50 µM | –
36 | CC(C)NC(=O)c1ccc2nc(-c3cccc(NS(=O)(=O)NCCCCO)c3)cn2c1 [Compound 43] | 0.47 µM | 0.47 µM | – | – | –
37 | CC(NC(=O)c1ccc2nc(-c3ccccc3)cn2c1)c1ccccn1 (stereo not shown) [Compound 30] | 6 µM | 6 µM | – | – | –
38 | O=C(NC1CC1)c1ccc2nc(-c3ccccc3)cn2c1 [Compound 33] | 9 µM | 9 µM | – | – | –
39 | Cc1ccc(-c2cn3cc(C(=O)NC(C)c4cccnc4)ccc3n2)cc1 (stereo not shown) [Compound 35] | 10 µM | 10 µM | – | – | –
40 | O=C(NC1CCC(O)CC1)c1ccc2nc(-c3ccc(F)cc3)cn2c1 (stereo not shown) [Compound 32] | 7 µM | 7 µM | – | – | –
